What was measured:
[1] = solubility of the active principle; assay type: physicochemical
Text: The active principle is an individual substance of the xanthone nature (mangiferin euxantogen) of the formula C19 H18 O11. […] This compound has not been hitherto used in the medicine.

[2] = system: HV (virus of the herpes group); test: antiviral properties in vitro in a culture of cells of fibroblasts of a chicken embryo (virus-suppressing effect, cytopathogenic effect); assay type: cell-based; settings: 10 μg/ml; 100 TCD50 HV
Protocol: The study of antiviral properties of the active principle has been carried out in in vitro experiments in a culture of cells of fibroblasts of a chicken embryo following a commonly employed procedure for primary screening of antiviral preparations. Cells are grown in flasks or test-tubes on the nutrient medium 199 with the addition of 5 to 10 vol.% of cattle serum. Then, for the contact of the virus with cells, into the flasks a virus-containing material is added in doses of 1, 10, 100 and 1,000 TCD50. […] Flasks or test-tubes are then subjected to thermosetting at the temperature of 37° C. The virus-suppressing effect is determined for 5 days by way of comparison of the presence of cytopathogenic effect in the control and test flasks and test-tubes. As the control use is made of: control of the single layer of cells, the control of the active principle without virus and the control of the virus without the active principle.

[3] = system: herpetic encephalitis (HV); test: experimental virus model of herpetic encephalitis of white mice; assay type: in vivo; settings: for Average life span: control 4.78 ± 0.46; for Life span: control 12.7 ± 2.6; for Survival, %: control 70
Protocol: The chemotherapeutic effect of the active principle and the pharmaceutical composition on the whole has been studied on an experimental virus model of herpetic encephalitis of white mice. In the experiments more than 1,500 animals were used. To obtain the experimental encephalitis, white mice weighing 8-10 g have been infected intracerebrally. Prior to the infection the animal head skin is smeared with iodine, then ten-times dilutions of the virus-containing liquid in the volume of 0.03 ml are injected by means of a tuberculin syringe into the supraorbital area near the front median line to a depth of 1-2 mm directly into the brain. 3 to 7 days thereafter in the animals there were observed the disease signs (excitation, coordination disturbance, adynamia, paresis and paralysis) which were rapidly intensified and terminated in death. The experiments were assessed by the animal survival (in percent) and by the average life span of the test animals as compared to the control.
For treatment purposes the active principle or the medicated compound in the form of tablets is administered to the infected animals per os by means of a gastric tube as an aqueous suspension in the volume of 0.5 ml in doses of 20 to 500 mg/kg of the body weight 1 or 2 times per day. The tests have been carried out according to three schemes. In the first scheme, in order to preliminarily saturate the animal's organism with the active principle or the preparation were administered to the animals 1-2 days before the infection (preventive test). In the second scheme, to reveal the therapeutic effect of the active principle or the pharmaceutical composition, the compositions were introduced on the infection day and one or two days after the infection. In the third scheme (treatment-prophylaxis) the active principle or the medicated compound is administered the day before the infection or on the infection day, in both cases the treatment of the animal is continued for 5 to 7 days after the infection.
The most advantageous chemotherapeutic effect of the active principle or the pharmaceutical composition is manifested under the conditions of the treatment-prophylaxis application (third scheme).

[4] = system: smooth muscles of an isolated section of a rat's small intestine; test: spasmolytic effect on acetylcholine and barium spasms of smooth muscles of an isolated section of small intestine
Text: The cardiological effect of the active principle has been studied in experiments on an isolated cat's heart; the effect on electrocardiographic characteristics has been studied in experiments on rabbits; the vasodilative effect--on vessels of an isolated rabbit's ear; the spasmolytic effect--on acetylcholine and barium spasms of smooth muscles of an isolated section of a rat's small intestine.

[5] = cardiorhythmic effect on the aconitine model of arrhythmia; assay type: in vivo, rat; settings: intravenous, 10 and 50 mg/kg
Protocol: The cardiorhythmic effect of the active principle has been studied on the rat's aconitine model of arrhythmia upon its intravenous administration in the doses of 10 and 50 mg/kg.

[6] = neurotropic activity: influence upon the somnific effects of hexenal or chloralhydrate; assay type: in vivo; settings: per os, 1, 10 and 100 mg/kg
Protocol: The neurotropic activity of the active principle is assessed through its influence upon the somnific effects of hexenal or chloralhydrate. The substance is introduced per os in the doses of 1, 10 and 100 mg/kg.

[7] = effect on acute exudative and chronical proliferative phases of inflammation; assay type: in vivo, mice
Protocol: The effect of the active principle on the acute exudative and chronical proliferative phases of inflammation in doses of 10 and 50 mg/kg has been studied upon per os administration to mice.

[8] = antidiabetic effect: glucose in blood under alimentary carbohydrate load; assay type: in vivo, rabbits; settings: per os
Protocol: To reveal the antidiabetic effect of the active principle, its effect on the content of glucose in rabbit's blood under the conditions of alimentary carbohydrate load has been studied. The active principle is administered in doses of 50 and 100 mg/kg once per os through a tube in a 1% starch paste. The experiment scheme is the following: the content of glucose in blood is determined in rabbit's blood on an empty stomach, and 40 minutes thereafter the content of glucose is again determined in blood. Afterwards, glucose is administered to the rabbits at the rate of 1.5 g/kg and the content of glucose in blood is determined 15, 30, 45, 60, 90 and 120 minutes after the administration thereof.

[9] = teratogenic activity; assay type: in vivo, rats; settings: 10 and 100 mg/kg per os daily for 30 days
Protocol: The study of the teratogenic activity of the active principle has been carried out on 15 couples of adult rats weighing 350 g divided into 3 groups of 5 couples in each. The females of the first group were daily administred 10 mg/kg of the active principle per os for 30 days until the birth of small rats; the females of the second group were administered 100 mg/kg of the active principle during the same period; the females of the third group were the control.

[10] = once a day, 0.04 mg/mice, P above 0.5
[11] = once a day, 0.2 mg/mice, P above 0.25
[12] = once a day, 1 mg/mice, P above 0.25
[13] = once a day, 5 mg/mice, P above 0.5
[14] = two times a day, 0.04 mg/mice, P above 0.1
[15] = two times a day, 0.2 mg/mice, P below 0.05
[16] = two times a day, 1 mg/mice, P below 0.05
[17] = two times a day, 5 mg/mice, P above 0.1

O=c1c2cc(O)c(O)cc2oc2cc(O)c([C@@H]3O[C@H](CO)[C@@H](O)[C@H](O)[C@H]3O)c(O)c12 [active principle, 2-C-β-D-glucopyranosyl-1,3,6,7-tetraoxyxanthone]
solubility in chloroform ([1]; chloroform): insoluble
solubility in ethanol ([1]; ethanol): sparingly soluble
solubility in ethyl ether ([1]; ethyl ether): insoluble
solubility in water ([1]; water): insoluble
virus-suppressing effect [2]: high virus-suppressing effect
chemotherapeutic effect ([3]; administration in maximum shortest time of the infection (Table 2)): highest
chemotherapeutic effect ([3]; administration two times a day (Table 1)): highest, statistically certain chemotherapeutic effect
chemotherapeutic effect (time of death vs control) ([3]; first two schemes (preventive; therapeutic), per os): impossible to reveal statistically certain chemotherapeutic effect
Average life span ([3]; on the infection day, 1 mg/mice, P above 0.25): 5.16 ± 0.91 days
Average life span ([3]; on the infection day, 2 mg/mice, P above 0.5): 5.0 ± 0.56 days
Average life span ([3]; on the infection day, 5 mg/mice, P below 0.05): 6.41 ± 0.71 days
Life span [3, 10]: 13.3 ± 2.5 days
Survival, % [3, 10]: 80%
Life span [3, 11]: 14.0 ± 2.3 days
Survival, % [3, 11]: 90%
Life span [3, 12]: 14.0 ± 2.2 days
Survival, % [3, 12]: 90%
Life span [3, 13]: 13.1 ± 2.7 days
Survival, % [3, 13]: 70%
Average life span ([3]; one day before infection, 1 mg/mice, P 0.05): 5.6 ± 0.82 days
Average life span ([3]; one day before infection, 2 mg/mice, P below 0.05): 6.05 ± 0.83 days
Average life span ([3]; one day before infection, 5 mg/mice, P below 0.05): 6.13 ± 1.04 days
Life span [3, 14]: 14.1 ± 0.9 days
Survival, % [3, 14]: 90%
Life span [3, 15]: 15.0 days
Survival, % [3, 15]: 100%
Life span [3, 16]: 15.0 days
Survival, % [3, 16]: 100%
Life span [3, 17]: 14.3 ± 2.5 days
Survival, % [3, 17]: 90%
spasmolytic effect [4]: no vasodilative and spasmolytic effect
cardiorhythmic effect [5]: no cardiorhythmic effect
effect on duration of sleep caused by chloralhydrate [6]: no substantial effect
effect on duration of sleep caused by hexenal [6]: no substantial effect
exudative phase in chronical proliferative inflammation ([7]; model of chronical proliferative inflammation): somewhat suppresses
development of the exudative phase of inflammation ([7]; per os, 50 mg/kg): suppresses the development of the exudative phase of inflammation
antiphlogistic activity relative to formalin edema ([7]; per os, 50 mg/kg, P below 0.005): 12.7
antiphlogistic activity relative to dextran edema ([7]; per os, 50 mg/kg, P below 0.05): 16.5
lowering of penetration of skin vessels ([7]; per os, 50 mg/kg, P below 0.05): 15%
antiphlogistic effect ([7]; per os, 10 and 50 mg/kg): slight antiphlogistic effect
formation of granulation-fibrous tissue ([7]; proliferative stage of chronical inflammation): retards the formation of a granulation-fibrous tissue
effect on the glycemic curve ([8]; 50 mg/kg): no effect
increase of glucose tolerance ([8]; 100 mg/kg, uncertainly increased): 14%
teratogenic properties [9]: no teratogenic properties
